The values below come from PubChem BioAssay AID743504 (Broad Institute, 2014).

Each structure is given as a SMILES string. Active and inactive are the calls of the source.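 Rule for the calls: active = compounds blocking the hormone-driven reporter light with IC50 under 35 µM; inactive = IC50 above 35 µM, or no measured IC50.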

By IC50 is commonly meant the concentration at which inhibition is half-maximal.

The assay deals with Bursicon receptor (Drosophila rickets, LGR2). Briefly: inhibition of bursicon-stimulated LGR2 cAMP signaling – cell-based, HEK293, CRE-luciferase, beta-gal normalized, dry powder, set 4, dose response (AID 743504). The conditions noted are these: antagonist.
Regarding `C[C@H](CO)N1C[C@H](C)[C@H](CN(C)C(=O)Nc2ccccc2)OCCCC[C@H](C)Oc2ccc(NC(=O)C3CCCCC3)cc2C1=O`, the IC50 is < 35 µM.
The figure for `C[C@H](CO)N1C[C@H](C)[C@H](CN(C)C(=O)Nc2ccc(F)cc2)OCCCC[C@H](C)Oc2ccc(NC(=O)C3CCCCC3)cc2C1=O` is < 35 µM; for `COc1ccc(NC(=O)N(C)C[C@@H]2OCCCC[C@H](C)Oc3ccc(NC(=O)C4CCCCC4)cc3C(=O)N([C@H](C)CO)C[C@@H]2C)cc1` it is < 35 µM.
`C[C@H](CO)N1C[C@H](C)[C@H](CN(C)C(=O)Nc2ccc3c(c2)OCO3)OCCCC[C@H](C)Oc2ccc(NC(=O)C3CCCCC3)cc2C1=O`: the IC50 is < 35 µM.
With `C[C@@H]1CCCCO[C@H](CN(C)C(=O)Nc2ccc(F)cc2)[C@H](C)CN([C@@H](C)CO)C(=O)c2cc(NC(=O)C3CCCCC3)ccc2O1` the figure was > 35 µM (inactive).
